“Also recorded” adds a separate entry of the source.
Legend:
clinical = settings: both, human, in vivo
Protocol: (§1) The label carried a random ID number and the kinetic day 1 and day 2.
(§2) The randomization was carried out on kinetic day 1 by means of consecutive numbering and was stratified by sex. On the kinetic days, a permanent venous catheter was inserted in the morning. Blood (8 mL) was collected under fasting conditions (at t0) into EDTA-K^+-containing tubes. […] The study product (1 capsule) was administered with 150 mL water by the study personnel to ensure compliance. A folate-free protein drink (Scandishake® Mix, Nutricia GmbH, Erlangen, Germany) was dissolved in water and served at 1 h, 3 h and 6 h after the product intake. The drink provided 430 kcal per serving. On each kinetic day, 9 blood samples were collected between t0 and t8 h (8 mL each). The diary records including documentation of adverse events were returned during the last blood collection session after 8 h of the intake. After a washout period of 2 weeks (only two participants returned at 11 and 17 days) and during the second study visit (kinetic day 2), the other study compound was administered following exactly the same procedure.
(§3) Plasma total folate levels were measured on the kinetic days by using Cobas autoanalyser (Elecsys®, Roche, Mannheim, Germany) at the Department of Clinical Chemistry, Saarland University Hospital, Germany. The CV% of the total folate assay was <6%. All plasma samples collected from the same subject (18 samples on both study visits) were prepared and measured in the same run. All blood samples were primary aliquots frozen at −70 °C for no longer than 3 months.

[1] = design: method as in Pietrzik et al., 2000 unpublished data; settings: single equimolar dose; 23 women; mean (SD); ref Pietrzik et al., 2000 unpublished data; cited from earlier work
[2] = Indirect comparison of AUCs of plasma (6S)-5-Methyl-THF between the 2019 and 2009 studies; settings: female, human, in vivo, 451 µg
Protocol: (§4) We used individual data from the two studies to calculate the AUC0–8 h of plasma (6S)-5-Methyl-THF. […] We extrapolated plasma concentrations of (6S)-5-Methyl-THF for the missing time points in the corresponding studies by calculating the mean of the concentrations at the two neighboring time points (=before and after the missing concentrations). […] The incremental AUCs of plasma (6S)-5-Methyl-THF were calculated and were expressed as nmol/L*h.

[3] = 2009 pharmacokinetic study (Prinz-Langenohl et al.): plasma (6S)-5-Methyl-THF by LC-MS-MS after a single oral dose in women; settings: AUC0-8h of plasma (6S)-5-Methyl-THF; individual ratios; mean (SD)
Protocol: Plasma concentrations of (6S)-5-Methyl-THF were selectively measured in both studies.
as §4
The data analyses were conducted using individual data from the 24 subjects in the present pharmacokinetic study and 21 women (3 women were excluded due to implausible results) from the study of Prinz-Langenohl et al. [13].

[4] = Pharmacokinetic study (present, 2019): plasma unmetabolized folic acid by UPLC-MS/MS after a single oral dose; settings: over 8 h; limit of detection 0.20 nmol/L
Protocol: as §1, §2, §3

[5] = Pharmacokinetic study (present, 2019): plasma (6S)-5-Methyl-THF by UPLC-MS/MS after a single oral dose
Protocol: Both folate compounds were provided in odorless gelatin capsules of identical appearance (Apotheke Roter Ochsen AG, Schaffhausen, Switzerland). The label carried a random ID number and the kinetic day 1 and day 2.
The randomization was carried out on kinetic day 1 by means of consecutive numbering and was stratified by sex. On the kinetic days, a permanent venous catheter was inserted in the morning. Blood (8 mL) was collected under fasting conditions (at t0) into EDTA-K^+-containing tubes. […] The study product (1 capsule) was administered with 150 mL water by the study personnel to ensure compliance. A folate-free protein drink (Scandishake® Mix, Nutricia GmbH, Erlangen, Germany) was dissolved in water and served at 1 h, 3 h and 6 h after the product intake. The drink provided 430 kcal per serving. On each kinetic day, 9 blood samples were collected between t0 and t8 h (8 mL each). […]
Plasma total folate levels were measured on the kinetic days by using Cobas autoanalyser (Elecsys®, Roche, Mannheim, Germany) at the Department of Clinical Chemistry, Saarland University Hospital, Germany. […] All plasma samples collected from the same subject (18 samples on both study visits) were prepared and measured in the same run. […]
Incremental areas under the observed concentration-time curve above baseline were calculated applying the trapezoidal rule and were expressed as nmol/L*h.

[6] = rated as unrelated to the study product
Protocol: On the kinetic days, a permanent venous catheter was inserted in the morning. Blood (8 mL) was collected under fasting conditions (at t0) into EDTA-K^+-containing tubes. […] The study product (1 capsule) was administered with 150 mL water by the study personnel to ensure compliance. […] On each kinetic day, 9 blood samples were collected between t0 and t8 h (8 mL each). The diary records including documentation of adverse events were returned during the last blood collection session after 8 h of the intake.

| SMILES | concentration at 0.5 h (clinical) | concentration at 1 h (clinical) | Tmax (clinical; po) | Incremental AUC0–8 h of plasma total folate [1] | AUC(0-t) [2] | AUC Ratio: AUCs (6S)-5-Methyl-THF-Ca/ folic acid 2009 [3] | Plasma unmetabolized folic acid levels after intake [4] | AUC Ratio: AUCs of (6S)-5-Methyl-THF-Na/ AUC folic acid 2019 ([5]; AUC0-8h of plasma (6S)-5-Methyl-THF, individual ratios, mean (SD)) | Maximum concentrations of plasma (6S)-5-Methyl-THF reached earlier compared to folic acid ([5]; difference of Tmax versus folic acid) | Headaches reported on kinetic day 1 after intake [6] |
| --- | --- | --- | --- | --- | --- | --- | --- | --- | --- | --- |
| Nc1nc2ncc(CNc3ccc(C(=O)N[C@@H](CCC(=O)O)C(=O)O)cc3)nc2c(=O)[nH]1 [folic acid, pteroylmonoglutamic acid] | 2.5 nM | 4.7 nM | 30 to 60 min | 50.3 (20.1) nmol/L*h | – | – | – | – | – | – |
| CN1c2c(nc(N)[nH]c2=O)NC[C@@H]1CNc1ccc(C(=O)N[C@@H](CCC(=O)O)C(=O)O)cc1 [(6S)-5-Methyl-THF-Ca, (6S)-5-Methyltetrahydrofolic acid] | – | – | – | 85.0 (21.9) nmol/L*h | 0.136 µM·h | 2.29 (0.76) | – | – | – | – |
| CN1c2c(nc(N)[nH]c2=O)NC[C@@H]1CNc1ccc(C(=O)N[C@@H](CCC(=O)O)C(=O)O)cc1 [(6S)-5-Methyl-THF-Na, (6S)-5-Methyltetrahydrofolic acid] | – | – | – | – | – | – | below the limit of detection; also recorded: remained undetectable | 2.52 (1.02) | 60 min | Three subjects reported headaches |
